Each structure is given as a SMILES string.

Consider two compounds from ChEMBL document CHEMBL5532636 (Eur J Med Chem, 2023).

Assay [1] relates to SARS-CoV-2. Put plainly: Antiviral activity against SARS-CoV-2 infected in human Calu-3 cells assessed as reduction in progeny virus yeild preincubated with cell culture for 1 hr and further infected with virus for 1 hr followed by replacement of medium containing compound measured after 2 days by qRT-PCR analysis. The class given is functional, organism-based. To be noted: Severe acute respiratory syndrome coronavirus 2, Calu-3.

For assay [2], the system named is SARS-CoV-2. Put plainly: Antiviral activity against SARS-CoV-2 infected in African green monkey Vero cells assessed as reduction in progeny virus yeild preincubated with cell culture for 1 hr and further infected with virus for 1 hr followed by replacement of medium containing compound measured after 2 days by qRT-PCR analysis. It counts as functional, organism-based. To be noted: Severe acute respiratory syndrome coronavirus 2, Vero.

On to `O=c1cc(-c2ccccc2)oc2cc(O)c(O)c(O)c12` [BAICALEIN], for which the concentration for a half-maximal effect (EC50) in assay [1] stood at 1.2 µM.

Regarding `O=C(O)[C@H]1O[C@@H](Oc2cc3oc(-c4ccccc4)cc(=O)c3c(O)c2O)[C@H](O)[C@@H](O)[C@@H]1O` [BAICALIN], the EC50 in assay [2] amounted to 9 µM.
